Values quoted from earlier work as cited in patent US8512522B2, “Method of producing paper with methane reduction ingredients” (priority 2011, dated 2013).
Like-named read-outs stand apart in the source and are kept apart here.

How the values were obtained:
[1] = system: Anaerobic digested sludge + activated sludge
Anaerobic medium = settings: methane inhibition
Sewage sludge = settings: methane inhibition
Anaerobic digester = settings: methane inhibition
Marine sediments = settings: methane inhibition

Molecule: O=S(=O)(O)CCBr [2-Bromoethane sulfonic acid]
- Suppressive Concentration ([1]; completely inhibited, Parameswaran et al., 2009): 50 mM
- Suppressive Concentration ([1]; potently inhibited, Chae et al., 2010): 0.1 to 0.27 mM

Molecule: [Ni+2] [Nickel (Ni2+)]
- Suppressive Concentration (Anaerobic medium): 2.5 mM

Molecule: [Fe+3] [Ferric iron (Fe3+)]
- Suppressive Concentration (Sewage sludge): 21 mg/L

Molecule: [Ca+2] [Calcium]
- Suppressive Concentration (Anaerobic digester): >2,500 mg/L

Molecule: Sodium
- Suppressive Concentration (Anaerobic digester): >3,500 mg/L

Molecule: C=C [Ethylene]
- Suppressive Concentration (Marine sediments): >5% v/v

Molecule: [Mg+2] [Magnesium]
- Suppressive Concentration (Anaerobic digester): >1,000 mg/L

Molecule: [Cu+2] [Copper (Cu2+)]
- Suppressive Concentration (Anaerobic digester): 10 to 250 mg/L

Molecule: [K+] [Potassium]
- Suppressive Concentration (Anaerobic digester): >2,500 mg/L

Molecule: [Zn+2] [Zinc (Zn2+)]
- Suppressive Concentration (Anaerobic digester): 10 to 250 mg/L
